Consider four molecules from patent publication US20100056524A1, “Compound” (priority 2008, published 2010).

One test concerns the target T1, p38g MAPK (Homo sapiens, UniProt P53778).
T1 construct: All protein kinases were of human origin and encoded full length proteins, unless indicated otherwise; made in house
T1 sequence (P53778 1-367): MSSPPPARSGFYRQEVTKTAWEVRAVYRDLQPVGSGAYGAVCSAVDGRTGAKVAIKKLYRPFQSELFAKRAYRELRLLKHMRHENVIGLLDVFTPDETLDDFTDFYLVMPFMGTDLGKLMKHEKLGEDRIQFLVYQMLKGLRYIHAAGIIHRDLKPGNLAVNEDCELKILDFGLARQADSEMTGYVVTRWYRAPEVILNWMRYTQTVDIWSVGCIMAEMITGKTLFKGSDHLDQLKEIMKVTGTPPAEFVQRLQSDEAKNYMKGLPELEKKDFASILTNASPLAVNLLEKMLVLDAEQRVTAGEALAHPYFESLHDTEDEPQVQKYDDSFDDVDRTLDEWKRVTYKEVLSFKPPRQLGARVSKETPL
Nature of the test: p38g MAPK protein kinase assay. It is filed as biochemical. The note with it: for remaining activity at 10 µM: 10 μM compound; for residual kinase activity p38g MAPK: 1 μm compound; for remaining activity at 1 µM: 1 μM compound. The source says:
(§1) All protein kinases were of human origin and encoded full length proteins, unless indicated otherwise. They were either expressed as glutathione S-transferase (GST) fusion proteins in Escherichia Coli or as hexahistidine (His6)-tagged proteins in insect Sf21 cells. GST fusion proteins were purified by affinity chromatography on glutathione-Sepharose, and His6-tagged proteins on nickel/nitriloacetate-agarose. The procedures for expressing some of the protein kinases used herein have been detailed previously.^8,9 The following sections outline the DNA vectors synthesised and the procedures used to express and purifying protein kinases that have not been reported previously.
(§2) All assays (25.5 μl) were carried out at room temperature (21° C.) and were linear with respect to time and enzyme concentration under the conditions used. Assays were performed for 30 min using Multidrop Micro reagent dispensers (Thermo Electron Corporation, Waltham, Mass. 02454, USA) in a 96-well format. The concentration of magnesium acetate in the assays was 10 mM and the [γ-33P] ATP (800 cpm/pmol) was used at 5, 20 or 50 μM as indicated, in order to be at or below the Km for ATP for each enzyme. Protein kinases assayed at 5 μM ATP were: —ERK1, ERK8, PKBα, MARK3, Aurora C. Protein kinases assayed at 20 μM ATP were: —JNK1, PDK1, CHK1, CHK2, CDK2 and Aurora B. Protein kinases assayed at 50 μM ATP were: —MNK2, IKKepsilon and TBK1.
(§3) The assays were initiated with MgATP, stopped by addition of 5 μl of 0.5 M orthophosphoric acid and spotted on to P81 filterplates using a unifilter harvester (PerkinElmer, Boston, Mass. 02118, USA). The IC50 values of inhibitors were determined after carrying out assays at 10 different concentrations of each compound.
(§4) Unless stated otherwise, enzymes were diluted in 50 mM Tris/HCl pH 7.5, 0.1 mM EGTA, 1 mg/ml BSA, 0.1% (v/v) 2-mercaptoethanol and assayed in 50 mM Tris/HCl pH 7.5, 0.1 mM EGTA, 0.1% (v/v) 2-mercaptoethanol.

The subject of a further test is ROCK 2. Description: ROCK 2 protein kinase assay. The note with it: for residual kinase activity: ROCK 2. It is filed as biochemical, human.
From the text: as §1, §2, §3, §4

For a further test, the target named is T2, DYRK2 (Homo sapiens, UniProt Q92630).
T2 construct: All protein kinases were of human origin and encoded full length proteins, unless indicated otherwise; made in house
T2 sequence (Q92630 1-601): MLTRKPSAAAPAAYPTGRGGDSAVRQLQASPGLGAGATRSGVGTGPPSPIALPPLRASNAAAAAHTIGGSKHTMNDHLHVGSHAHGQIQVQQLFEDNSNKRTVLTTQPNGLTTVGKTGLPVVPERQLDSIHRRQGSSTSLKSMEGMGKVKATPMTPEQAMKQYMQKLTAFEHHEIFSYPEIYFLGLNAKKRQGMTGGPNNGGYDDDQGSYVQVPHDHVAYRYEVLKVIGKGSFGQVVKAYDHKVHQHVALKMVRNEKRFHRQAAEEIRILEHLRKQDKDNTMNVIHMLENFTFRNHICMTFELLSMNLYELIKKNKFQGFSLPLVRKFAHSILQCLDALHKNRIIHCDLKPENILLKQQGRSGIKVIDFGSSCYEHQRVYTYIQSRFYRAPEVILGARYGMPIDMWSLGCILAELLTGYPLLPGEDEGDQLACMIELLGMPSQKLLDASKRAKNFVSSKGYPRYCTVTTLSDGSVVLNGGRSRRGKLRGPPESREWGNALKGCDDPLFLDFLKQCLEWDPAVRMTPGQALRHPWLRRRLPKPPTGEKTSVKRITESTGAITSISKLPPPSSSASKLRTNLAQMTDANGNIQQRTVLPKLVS
Description: DYRK2 protein kinase assay. It is filed as biochemical. The note with it: for remaining activity at 10 µM: 10 μM compound; for residual kinase activity DYRK2: 1 μm compound; for remaining activity at 1 µM: 1 μM compound.
From the text: as §1, §2, §3, §4

The target in another test is T3, IKKe (Homo sapiens, UniProt Q14164).
T3 construct: All protein kinases were of human origin and encoded full length proteins, unless indicated otherwise; His6; made in house; host or cells: insect Sf21 cells
T3 sequence (Q14164 1-716): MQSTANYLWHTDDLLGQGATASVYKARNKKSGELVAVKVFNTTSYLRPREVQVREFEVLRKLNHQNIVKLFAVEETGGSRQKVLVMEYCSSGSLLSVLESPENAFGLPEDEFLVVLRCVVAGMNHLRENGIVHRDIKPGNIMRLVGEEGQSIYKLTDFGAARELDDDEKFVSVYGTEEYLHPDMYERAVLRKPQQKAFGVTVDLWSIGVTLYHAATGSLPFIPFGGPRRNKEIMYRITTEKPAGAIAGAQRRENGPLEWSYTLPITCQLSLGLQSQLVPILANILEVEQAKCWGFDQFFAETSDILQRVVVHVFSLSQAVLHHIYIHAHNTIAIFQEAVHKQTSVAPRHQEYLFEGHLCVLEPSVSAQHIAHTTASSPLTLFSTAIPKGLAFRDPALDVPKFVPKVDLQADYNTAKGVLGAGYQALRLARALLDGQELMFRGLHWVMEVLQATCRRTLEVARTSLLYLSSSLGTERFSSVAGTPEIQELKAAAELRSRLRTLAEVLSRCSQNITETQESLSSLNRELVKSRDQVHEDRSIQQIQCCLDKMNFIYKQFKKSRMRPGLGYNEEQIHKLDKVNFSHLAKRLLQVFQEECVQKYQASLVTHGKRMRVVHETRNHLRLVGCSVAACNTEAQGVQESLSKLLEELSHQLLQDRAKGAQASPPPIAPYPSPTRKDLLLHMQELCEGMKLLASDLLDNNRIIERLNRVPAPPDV
Description: IKKe protein kinase assay. Format: biochemical. The note with it: for remaining activity at 10 µM: 10 μM compound; for residual kinase activity IKKe: 1 μm compound; for remaining activity at 1 µM: 1 μM compound.
From the text: as §1
The following kinases were expressed in Sf21 cells: Aurora B and Aurora C, extra-cellular signal-regulated kinase 8 (ERK8), microtubule affinity regulating kinase 3 (MARK3), protein kinase Bα[118-480][S473D], protein kinase Bβ (PKBβ[120-481][S474D], 3-phosphoinositide-dependent protein kinase-1 [52-556]
as §2, §3, §4

The mark [1] stands for this setting: read-out: residual kinase activity p38g MAPK.
[2] abbreviates: read-out: residual kinase activity DYRK2.
[3] abbreviates: read-out: residual kinase activity IKKe.
The mark [4] stands for this setting: p38g MAPK, read-out: residual kinase activity.
The mark [5] stands for this setting: DYRK2, read-out: residual kinase activity.
The mark [6] stands for this setting: IKKe, 50 μM ATP, read-out: residual kinase activity.

Counter-ions that a name gives are not always drawn. Like-named read-outs stand apart in the source and are kept apart here.

Take `O=C(NCCCNc1nc(Nc2cccc(F)c2)ncc1Br)C1CCC1` [Compound A, cyclobutanecarboxylic acid {3-[5-bromo-2-(3-fluoro-phenylamino)-pyrimidin-4-ylamino]-propyl}-amide, reference compound]: the remaining activity at 10 µM on p38g MAPK (setting [1]) turned out to be 17%; at DYRK2 (setting [2]) it was 6%; on IKKe (setting [3]), 3%. At p38g MAPK, the “residual kinase activity p38g MAPK” value is on record as 65%. The “residual kinase activity ROCK 2” value in the test with ROCK 2 (10 μM compound) worked out at 11%; with ROCK 2 (1 μm compound), 33%. Moreover, the “residual kinase activity DYRK2” value at DYRK2 is on record as 36%. For the same molecule, the “residual kinase activity IKKe” value at IKKe stood at 13%.

Turning to `O=C(NCCCNc1nc(Nc2cccc(F)c2)ncc1C1CC1)C1CCC1` [Example 23, Cyclobutanecarboxylic acid {3-[5-cyclopropyl-2-(3-fluoro-phenylamino)-pyrimidin-4-ylamino]-propyl}-amide], the remaining activity at 10 µM came out at 91% on p38g MAPK (setting [1]); 91% at p38g MAPK (setting [4]); 50% at DYRK2 (setting [2]); 50% at DYRK2 (setting [5]); 5% on IKKe (setting [3]); 5% at IKKe (setting [6]). Moreover, the “residual kinase activity p38g MAPK” value on p38g MAPK was 81%. The remaining activity at 1 µM stood at 81% at p38g MAPK (setting [4]), 67% at DYRK2 (setting [5]) and 15% at IKKe (setting [6]). Besides, the entries for the “residual kinase activity ROCK 2” value in the test with ROCK 2 (10 μM compound) and in the test with ROCK 2 (1 μm compound) were 40% and 77%, respectively. In addition, the residual kinase activity is recorded as 77% in the test with ROCK 2 (1 μM compound) and 40% in the test on ROCK 2 (10 μM compound). Moreover, at DYRK2, the “residual kinase activity DYRK2” value was 67%. In addition, the “residual kinase activity IKKe” value at IKKe is on record as 15%.

Take `O=C(NCCCNc1nc(Nc2cccc(N3CCCC3=O)c2)ncc1C1CC1)c1cccs1` [Example 47, Thiophene-2-carboxylic acid (3-{5-cyclopropyl-2-[3-(2-oxo-pyrrolidin-1-yl)-phenylamino]-pyrimidin-4-ylamino}-propyl)-amide. Hydrochloride salt]: the remaining activity at 1 µM on p38g MAPK (setting [4]) is 97%; on DYRK2 (setting [5]) it was 81%; on IKKe (setting [6]), 14%. The remaining activity at 10 µM at p38g MAPK (setting [4]) stood at 77%; on DYRK2 (setting [5]) it was 63%; at IKKe (setting [6]), 6%. Also, the residual kinase activity in the test with ROCK 2 (1 μM compound) worked out at 85%; in the test on ROCK 2 (10 μM compound), 48%.

With `O=C(NCCCNc1nc(Nc2cccnc2)ncc1C1CC1)c1cccs1` [Example 50, Thiophene-2-carboxylic acid {3-[5-cyclopropyl-2-(pyridin-3-ylamino)-pyrimidin-4-ylamino]-propyl}-amide], the remaining activity at 1 µM on p38g MAPK (setting [4]) turned out to be 93%; on DYRK2 (setting [5]), 76%; at IKKe (setting [6]), 28%. The remaining activity at 10 µM at p38g MAPK (setting [4]) is 80%; at DYRK2 (setting [5]), 38%; at IKKe (setting [6]), 7%. Besides, the results for the residual kinase activity in the test with ROCK 2 (1 μM compound) and in the test with ROCK 2 (10 μM compound) were 77% and 51%, respectively.
